In patent US7915297B2, “Isoxazole derivatives and use thereof” (SK Holdings Co., Ltd., priority 2005, dated 2011):

How the values were obtained:
[1] = test system: Wnt/β-catenin signaling (β-catenin activity) in SW480 cell line; test: Cell-based Wnt agonist screening, TCF luciferase reporter, SW480 (TCF-FL); set-up: species or system human; settings: % of LiCl (20 mM); for Emax at 1 µM / Emax at 30 µM / Emax at 120 µM / Emax at 10 µM: Homo sapiens, 24 h, read-out: Max. Activity (%); for Emax at 1 µM: Con. 1 μM; for Emax at 30 µM: Con. 30 μM; for Emax at 120 µM: Con. 120 μM; for Emax at 10 µM: Con. 10 μM
Source text: (§1) In order to measure the in vitro activity of compounds of the present invention, two human cancer cell lines, HEK293 and SW480, which have intact Wnt signaling and show APC gene mutation in the Wnt signaling pathway, respectively, were used.
(§2) For evaluating the activity of wnt/β-catenin signaling in the cancer cell lines, gene as illustrated in FIG. 1 having β-catenin-binding sites of the Tcf/Lef transcriptional control protein (5 sites of TCF, 5X TCF) and having a fire fly luficerase as a marker protein ascertainable the activity of 5X TCF was introduced into the cells. Treatment with G418 led monoclones of the cell lines, in which the genes were permanently expressed, so as to construct a cell-based Wnt agonist screening system. […] For comparison with the activity of the isoxazole derivatives as Wnt agonists, lithium chloride (LiCl), acting as a positive control for the cell-based Wnt agonist screening system, was used to determine the expression level of the luciferase, and the results are shown in FIG. 3.
(§3) The cell lines, in which a cell-based Wnt agonist screening system was constructed, were cultured in RPMI 1640 media supplemented with penicillin-streptomycin (100 Units/mL) and heat-inactivated 5% fetal bovine serum under standard culture conditions (5% CO2, 37° C., 100% relative humidity). […] The suspension was diluted with the same medium to adjust the cell count to 8,000˜15,000 cells per well and was moved then in a 96-well microtiter plate. After being incubated for 24 hrs, the cells were treated with various concentrations of the isoxazole derivatives synthesized in Preparation Examples. Incubation for an additional 24 hours was followed by the quantitative analysis of luciferase activity using a Luciferase Assay kit (Promega, U.S.A.) according to the protocol described in the manual provided by the manufacturer. Data on the activities of the isoxazole derivatives thus synthesized are given in Tables 34 to 43, and are expressed as percentages relative to the activity of the positive control LiCl (20 mM), a well-known agonist of Wnt signaling.

[2] = test system: Wnt/β-catenin signaling (β-catenin activity) in HEK293 cell line; test: Cell-based Wnt agonist screening, TCF luciferase reporter, HEK293 (TCF-FL); set-up: species or system human; settings: % of LiCl (20 mM); for Emax at 30 µM: Conc. 30 μM; for Emax at 120 µM: Conc. 120 μM
Source text: as §1, §2, §3

[3] = Homo sapiens, HEK293, 24 h, 24 h, read-out: Max. Activity (%)

SMILES	Emax at 30 µM [1] [%]	Emax at 120 µM [1] [%]	other results
O=C(NCCOc1ccccc1)c1cc(-c2ccco2)on1 [Derivative (214), 5-furan-2-yl-isoxazole-3-carboxylic acid (2-phenoxy-ethyl)-amide]			Emax at 1 µM [1]: 161%
O=C(NCCc1ccc2c(c1)OCO2)c1cc(-c2ccco2)on1 [Derivative (29), 5-furan-2-yl-isoxazole-3-carboxylic acid (2-benzo[1,3]dioxol-5-yl-ethyl)-amide]	< 20		Emax at 30 µM [2, 3]: < 20%
O=C(NCCn1ncnn1)c1cc(-c2ccc(F)cc2)on1 [Derivative (91), 5-(4-fluoro-phenyl)-isoxazole-3-carboxylic acid (2-tetrazol-2-yl-ethyl)-amide]	103		Emax at 30 µM [2, 3]: 103%
O=C(NCCCCn1ccnc1)c1cc(-c2ccco2)on1 [Derivative (34), 5-furan-2-yl-isoxazole-3-carboxylic acid (4-imidazol-1-yl-butyl)-amide]		120	Emax at 120 µM [2, 3]: 44%
O=C(NCCc1ccccc1F)c1cc(-c2ccco2)on1 [Derivative (16), 5-furan-2-yl-isoxazole-3-carboxylic acid [2-(2-fluoro-phenyl)-ethyl]-amide]	327		Emax at 30 µM [2, 3]: < 20%
COC(=O)c1cn(CCCNC(=O)c2cc(-c3ccco3)on2)cn1 [Derivative (58), 1-{3-[(5-furan-2-yl-isoxazole-3-carbonyl)-amino]-propyl}-1H-imidazole-4-carboxylic acid methyl ester]	270		Emax at 30 µM [2, 3]: < 20%
[Cl-].[Li+] [LiCl, lithium chloride, reference compound]			Max. Activity (%) ([1]; Con. 20000 μM): 100%; Max. Activity (%) ([2]; Conc. 20000 μM): 100%
CN1CCN(CCNC(=O)c2cc(-c3ccco3)on2)CC1 [Derivative (177), 5-furan-2-yl-isoxazole-3-carboxylic acid [2-(4-methyl-piperazin-1-yl)-ethyl]-amide]	582		
O=C(NCCNc1ccccc1)c1cc(-c2ccco2)on1 [Derivative (195), 5-furan-2-yl-isoxazole-3-carboxylic acid (2-phenylamino-ethyl)-amide]			Emax at 1 µM [1]: 84%
O=C(c1cc(-c2cccs2)on1)N1CCN(c2ncccn2)CC1 [Derivative (222), (4-pyrimidin-2-yl-piperazin-1-yl)-(5-thiophen-2-yl-isoxazol-3-yl)-methanone]	57		
O=C(NCCc1cccnc1)c1cc(-c2ccccc2)on1 [Derivative (71), 5-phenyl-isoxazole-3-carboxylic acid (2-pyridin-3-yl-ethyl)-amide]	919		
O=C(NCCn1nccn1)c1cc(-c2ccco2)on1 [Derivative (40), 5-furan-2-yl-isoxazole-3-carboxylic acid (2-[1,2,3]triazol-2-yl-ethyl)-amide]	896		
O=C(NCCn1ccnn1)c1cc(-c2ccco2)on1 [Derivative (41), 5-furan-2-yl-isoxazole-3-carboxylic acid (2-[1,2,3]triazol-1-yl-ethyl)-amide]	676		
O=C(NCCc1ccc(O)cc1)c1cc(-c2ccco2)on1 [Derivative (22), 5-furan-2-yl-isoxazole-3-carboxylic acid [2-(4-hydroxy-phenyl)-ethyl]-amide]			Emax at 30 µM [2, 3]: < 20%
O=C(NCc1ccncc1)OCc1cc(-c2ccco2)on1 [Derivative (254), pyridin-4-ylmethyl-carbamic acid 5-furan-2-yl-isoxazol-3-ylmethyl ester]		37	
O=C(NCCCn1ccnc1)c1cc(-c2ccc(Br)s2)on1 [Derivative (143), 5-(5-bromo-thiophen-2-yl)-isoxazole-3-carboxylic acid (3-imidazol-1-yl-propyl)-amide]		93	
Nc1ccc(-c2cc(C(=O)NCCCn3ccnc3)no2)cc1 [Derivative (120), 5-(4-amino-phenyl)-isoxazole-3-carboxylic acid (3-imidazol-1-yl-propyl)-amide]		246	
O=C(NCCCn1ccnc1)c1cc(-c2ccoc2)on1 [Derivative (152), 5-furan-3-yl-isoxazole-3-carboxylic acid (3-imidazol-1-yl-propyl)-amide]		374	

SMILES	Emax at 30 µM [1] [%]	Emax at 120 µM [1] [%]	other results
O=C(NCCS(=O)(=O)c1ccccc1)c1cc(-c2cccs2)on1 [Derivative (219), 5-thiophen-2-yl-isoxazole-3-carboxylic acid (2-benzenesulfonyl-ethyl)-amide]	113		
O=C(c1cc(-c2cccs2)on1)N1CCN(c2ccccn2)CC1 [Derivative (221), (4-pyridin-2-yl-piperazin-1-yl)-(5-thiophen-2-yl-isoxazol-3-yl)-methanone]	51		
O=C(NCCc1ccncc1)c1cc(-c2ccco2)on1 [Derivative (12), 5-furan-2-yl-isoxazole-3-carboxylic acid (2-pyridin-4-yl-ethyl)-amide]			Emax at 60 µM ([2]; Homo sapiens, HEK293, 24 h, 24 h, Conc. 60 μM, read-out: Max. Activity (%)): 109%
O=C(NCCn1cncn1)c1cc(-c2cccs2)on1 [Derivative (135), 5-thiophen-2-yl-isoxazole-3-carboxylic acid (2-[1,2,4]triazol-1-yl-ethyl)-amide]		945	
O=C(NCCn1cncn1)c1cc(-c2ccco2)on1 [Derivative (38), 5-furan-2-yl-isoxazole-3-carboxylic acid (2-[1,2,4]triazol-1-yl-ethyl)-amide]			Emax at 10 µM [1]: 551%
CN(CCc1ccccn1)C(=O)c1cc(-c2ccco2)on1 [Derivative (61), 5-furan-2-yl-isoxazole-3-carboxylic acid methyl-(2-pyridin-2-yl-ethyl)-amide]		56	
O=C(CCNC(=O)c1cc(-c2cccs2)on1)Nc1ccccc1 [Derivative (209), 5-thiophen-2-yl-isoxazole-3-carboxylic acid (2-phenylcarbamoyl-ethyl)-amide]	246		
CN1CCN(C(=O)OCc2cc(-c3ccco3)on2)CC1 [Derivative (253), 4-methyl-piperazine-1-carboxylic acid 5-furan-2-yl-isoxazol-3-ylmethyl ester]			Emax at 10 µM [1]: 66%
O=C(c1cc(-c2cccs2)on1)N1CCC(N2CCCC2)CC1 [Derivative (223), (4-pyrrolidin-1-yl-piperidin-1-yl)-(5-thiophen-2-yl-isoxazol-3-yl)-methanone]	50		
CC(=O)N1CCN(C(=O)OCc2cc(-c3ccco3)on2)CC1 [Derivative (252), 4-acetyl-piperazine-1-carboxylic acid 5-furan-2-yl-isoxazol-3-ylmethyl ester]		49	
O=C(NCCc1ccccn1)c1cc(-c2ccco2)on1 [Derivative (10), 5-furan-2-yl-isoxazole-3-carboxylic acid (2-pyridin-2-yl-ethyl)-amide]			Emax at 120 µM [2, 3]: 32%
O=C(NCCc1ccc(O)cc1)c1cc(-c2ccccc2)on1 [Derivative (73), 5-phenyl-isoxazole-3-carboxylic acid [2-(4-hydroxy-phenyl)-ethyl]-amide]	853		
O=C(NCCc1cccnc1)c1cc(-c2cccs2)on1 [Derivative (139), 5-thiophen-2-yl-isoxazole-3-carboxylic acid (2-pyridin-3-yl-ethyl)-amide]	922		
O=C(OCc1cc(-c2ccco2)on1)n1ccnc1 [Derivative (251), imidazole-1-carboxylic acid 5-furan-2-yl-isoxazol-3-ylmethyl ester]		35	
O=C(NCCn1cncn1)c1cc(-c2ccsc2)on1 [Derivative (158), 5-thiophen-3-yl-isoxazole-3-carboxylic acid (2-[1,2,4]-triazol-1-yl-ethyl)-amide]		414	
O=C(NCCn1nccn1)c1cc(-c2cccs2)on1 [Derivative (136), 5-thiophen-2-yl-isoxazole-3-carboxylic acid (2-[1,2,3]triazol-2-yl-ethyl)-amide]			Emax at 1 µM [1]: 837%
O=C(NCCN1CCCCC1)c1cc(-c2ccco2)on1 [Derivative (174), 5-furan-2-yl-isoxazole-3-carboxylic acid (2-piperidin-1-yl-ethyl)-amide]		79	
O=C(NCCCn1cncn1)c1cc(-c2ccoc2)on1 [Derivative (153), 5-furan-3-yl-isoxazole-3-carboxylic acid (3-[1,2,4]-triazol-1-yl-propyl)-amide]			Emax at 10 µM [1]: 304%
